# In paper PMC10291553, “Exploring Structure–Activity Relationships in Photodynamic Therapy Anticancer Agents Based on Ir(III)-COUPY Conjugates” (Journal of Medicinal Chemistry, 2023):
# Several values for one entry are separate records, joined by “and”; a condition that tells them apart may be missing. Equal values may be shown once. Read-outs that look alike come from different tables or passages of the source.
# What was measured:
# A375 = experiment: Photo- and cytotoxic activity determination (MTT), A375 cells; format: cell-based, human; conditions: normoxia; for A375 PI (phototherapeutic index), IC50 dark/IC50 irradiated: 520 nm, dark tested up to 100 μM; for IC50: 48 h drug-free medium
# Source text: (§1) Having shown that the Ir(III)-COUPY conjugates can sensitize both type I and II ROS through spectroscopic techniques and readily internalize into living cells, their photocytotoxicity was screened in various cancer cell lines. This screening included two representative melanoma cell lines (human A375 and […] human SK-MEL-28) and cancer cells with resistance to the clinical drug cisplatin. For the latter, both sensitive and cisplatin-resistant ovarian cancer cells (A2780 and A2780cis) as well as HeLa cells, which also show a degree of chemoresistance to the platinum anticancer drug in vitro,[54] were used. For the determination of dark and light cytotoxicity, dose–response curves were assayed from both conditions to provide the correspondent IC50 values, which correspond to the concentration needed for inhibition of cell growth by 50%. Phototherapeutic index (PI) was calculated as the ratio of dark to light IC50 value for each compound.
# (§2) A375, HeLa, and SK-MEL-28 cells were cultured in Dulbecco’s modified Eagle medium (DMEM) supplemented with 10% FBS, L-glutamine, and 1% penicillin–streptomycin. A2780 and A2780cis cells were grown in RPMI-1640 cell medium supplemented with 10% fetal bovine serum (FBS) and 2 mM L-glutamine. Acquired resistance to cisplatin in the A2780cis cell line was maintained by adding cisplatin 1 μM to culture medium every second passage. Cells were cultured in a humidified incubator at 310 K with 5% CO2 atmosphere and subcultured two or three times a week with appropriate densities and were confirmed to be mycoplasma-free using a standard Hoechst DNA staining method.
# (§3) A2780, A2780cis, HeLa, A375, and SK-MEL-28 cells were maintained at logarithmic growth-phase and cultured in 96-well plates at a density of 5000 cells/well in complete medium for 24 h at 310 K, 5% CO2 in a humidified incubator. For hypoxia experiments, a hypoxia condition was set up by Tissue Culture Service at University of Murcia using nitrogen (N2) to displace O2 down to a minimum of 2% in a Forma Steri-Cycle i160 incubator (Thermo Fisher Scientific). Serial dilutions of the compounds were added at the final concentrations in the range of 0–100 μM in a final volume of 100 μL per well. A light-based treatment schedule was performed as follows: 1 h incubation with the compounds in the dark, followed by 1 h incubation under irradiation conditions by placing the Photoreactor EXPO-LED from Luzchem (Canada) fitted with green lamps (final light intensity applied of 1.5 mW/cm^2 at λmax = 520 nm) inside the CO2 incubator. All the cell culture plates subjected to light irradiation included untreated controls to verify that cell viability was not affected by light. Then, treatment-containing media was removed, and fresh media was added for a 48 h cell recovery period; the temperature throughout the experiment remained at 310 K. Dark control samples were placed in the same dark conditions and then kept incubated for 1 h in the dark in the humidified CO2 incubator. Medium was then aspirated by suction, cells were loaded with 50 μL of MTT solution (1 mg/mL) for additional 4 h and then removed, and 50 μL of DMSO was added to solubilize the purple formazan crystals formed in active cells. The absorbance was measured at 570 nm using a microplate reader (FLUOstar Omega), and the IC50 values were calculated based on the inhibitory rate curves using the following equation [drawing 4] 4 where I represents the percentage inhibition of viability observed, Imax is the maximal inhibitory effect, IC50 is the concentration that inhibits 50% of maximal growth, C is the concentration of the treatment, and n is the slope of the semi-logarithmic dose–response sigmoidal curves. The non-linear fitting was performed using SigmaPlot 14.0 software. All experiments were performed in three independent studies with n = 3 replicates per concentration level. For a detailed phototoxicity procedure, ref ([43]) includes technical explanations.
# A2780cis cells = experiment: Photo- and cytotoxic activity determination (MTT), A2780cis cells, normoxia or hypoxia; format: cell-based; conditions: for Partial inhibition (% of cell growth inhibition with respect to untreated controls), Hypoxia / Partial inhibition (% of cell growth inhibition with respect to untreated controls), Normoxia: 250 μM, 2 h incubation in the dark, 48 h drug-free recovery; for Hypoxia PI (phototherapeutic index) / Normoxia PI (phototherapeutic index): dark tested up to 250 μM; for A2780cis PI (phototherapeutic index), IC50 dark/IC50 irradiated: dark tested up to 100 μM
# How it was run: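 Dark and light IC50 values come from MTT viability (A570) after 1 h compound exposure in the dark, then 1 h under 520 nm light at 1.5 mW/cm^2 or continued darkness, and 48 h drug-free recovery. Phototherapeutic index is dark/light IC50. A2780cis were kept resistant with 1 μM cisplatin every second passage.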
# A2780 = experiment: Photo- and cytotoxic activity determination (MTT), A2780 cells; format: cell-based; conditions: normoxia; for A2780 PI (phototherapeutic index), IC50 dark/IC50 irradiated: 520 nm, dark tested up to 100 μM; for IC50: 48 h drug-free medium
# Source text: as §1, §2, §3
# HeLa = experiment: Photo- and cytotoxic activity determination (MTT), HeLa cells; format: cell-based; conditions: normoxia; for HeLa PI (phototherapeutic index), IC50 dark/IC50 irradiated: 520 nm, dark tested up to 100 μM; for IC50: 48 h drug-free medium
# Source text: as §1, §2, §3
# [1] = 1 h incubation + 1 h green light 520 nm, 1.5 mW cm^–2, read-out: A375 light IC50
# [2] = kept in the dark, 2 h treatment, read-out: A375 dark IC50
# [3] = A2780cis, hypoxia 2% O2, 520 nm
# [4] = A2780cis, hypoxia 2% O2, dark, tested up to 250 μM, read-out: Hypoxia Dark IC50
# [5] = A2780cis, normoxia 21% O2, 520 nm
# [6] = A2780cis, normoxia 21% O2, dark, tested up to 250 μM, read-out: Normoxia Dark IC50
# [7] = hypoxia, 520 nm, read-out: A2780cis Light 520 nm IC50 (microM) Hypoxia
# [8] = hypoxia, dark, read-out: A2780cis Dark IC50 (microM) Hypoxia
# [9] = normoxia, 1 h incubation + 1 h green light 520 nm, 1.5 mW cm^–2, 48 h drug-free medium, read-out: A2780cis light IC50
# [10] = normoxia, dark, up to 250 microM, read-out: A2780cis Dark IC50 (microM) Normoxia
# [11] = normoxia, kept in the dark, tested up to 100 μM, 2 h treatment, 48 h drug-free medium, read-out: A2780cis dark IC50
# [12] = 1 h incubation + 1 h green light 520 nm, 1.5 mW cm^–2, read-out: A2780 light IC50
# [13] = kept in the dark, 2 h treatment, read-out: A2780 dark IC50
# [14] = 1 h incubation + 1 h green light 520 nm, 1.5 mW cm^–2, read-out: HeLa light IC50
# [15] = kept in the dark, 2 h treatment, read-out: HeLa dark IC50
SMILES,"A375 PI (phototherapeutic index), IC50 dark/IC50 irradiated (A375)",IC50 (A375; [1]) [µM],IC50 (A375; [2]) [µM],"Partial inhibition (% of cell growth inhibition with respect to untreated controls), Hypoxia (A2780cis cells; A2780cis, hypoxia) [%]","Partial inhibition (% of cell growth inhibition with respect to untreated controls), Normoxia (A2780cis cells; A2780cis, normoxia) [%]",Hypoxia PI (phototherapeutic index) (A2780cis cells; [3]),IC50 (A2780cis cells; [4]) [µM],Normoxia PI (phototherapeutic index) (A2780cis cells; [5]),IC50 (A2780cis cells; [6]) [µM],IC50 (A2780cis cells; [8]) [µM],"A2780cis PI (phototherapeutic index), IC50 dark/IC50 irradiated (A2780cis cells; normoxia, 520 nm)",IC50 (A2780cis cells; [9]) [µM],IC50 (A2780cis cells; [10]) [µM],IC50 (A2780cis cells; [11]) [µM],"A2780 PI (phototherapeutic index), IC50 dark/IC50 irradiated (A2780)",IC50 (A2780; [12]) [µM],IC50 (A2780; [13]) [µM],"HeLa PI (phototherapeutic index), IC50 dark/IC50 irradiated (HeLa)",IC50 (HeLa; [14]) [µM],IC50 (HeLa; [15]) [µM],other results
CCCCn1c2[n+](c3cc(C(=O)OC)ccc31)[Ir-3]13([c]4ccccc4-c4[nH]c5ccccc5[n+]41)([c]1ccccc1-c1[nH]c4ccccc4[n+]13)[n+]1c-2ccc2ccccc21 [2a],> 48,2.1 ± 0.3,> 100,56 ± 6,62 ± 4,> 22.7,> 250,> 71.4,> 250,> 250,> 29,3.5 ± 0.4,> 250,> 100,> 25,4 ± 1,> 100,> 1.3,75 ± 6,> 100,IC50 (A2780cis cells; [7]): 11 ± 2 µM
CCCCn1c2[n+](c3cc(C(=O)NCCCNC(=O)C[n+]4ccc(/C(C#N)=C5/C=C(C)c6cc7c8c(c6O5)CCCN8CCC7)cc4)ccc31)[Ir-3]13([c]4ccccc4-c4[nH]c5ccccc5[n+]41)([c]1ccccc1-c1[nH]c4ccccc4[n+]13)[n+]1c-2ccc2ccccc21 [3c],> 3,38 ± 5,> 100,61 ± 8,74 ± 10,> 31.3 and > 31,> 250,> 240.4 and > 240,> 250,> 250,> 96,1.04 ± 0.02,> 250,> 100,> 48,2.1 ± 0.2,> 100,> 2.2,45 ± 4,> 100,IC50 (A2780cis cells; [7]): 8 ± 1 µM
CCCCn1c2[n+](c3cc(C(=O)NCCCNC(=O)C[n+]4ccc(/C(C#N)=C5/C=C(C)c6ccccc6O5)cc4)ccc31)[Ir-3]13([c]4ccccc4-c4[nH]c5ccccc5[n+]41)([c]1ccccc1-c1[nH]c4ccccc4[n+]13)[n+]1c-2ccc2ccccc21 [3b],> 1.3,78 ± 6,> 100,45 ± 6,63 ± 5,> 8.1,> 250,> 4.1,> 250,> 250,> 1.6,61 ± 8,> 250,> 100,> 14,7.1 ± 0.1,> 100,> 6,18 ± 2,> 100,"PI (phototherapeutic index), blue light (A2780cis cells; A2780cis, 465 nm): > 41.7; IC50 (A2780cis cells; A2780cis, 1 h incubation + 1 h blue light 465 nm, 5 mW/cm2, 48 h drug-free, read-out: 465 nm IC50): 2.4 µM; IC50 (A2780cis cells; A2780cis, hypoxia 2% O2, 1 h incubation + 1 h green light 520 nm, 48 h drug-free, read-out: Hypoxia 520 nm IC50): 31 µM"
CCCCn1c2[n+](c3cc(C(=O)NCCCCCC(=O)NCCCNC(=O)C[n+]4ccc(/C(C#N)=C5/C=C(C)c6ccc(N(CC)CC)cc6O5)cc4)ccc31)[Ir-3]13([c]4ccccc4-c4[nH]c5ccccc5[n+]41)([c]1ccccc1-c1[nH]c4ccccc4[n+]13)[n+]1c-2ccc2ccccc21 [3d],> 2.2,46 ± 4,> 100,27 ± 4,21 ± 1,> 131.6 and > 131,> 250,> 227.3 and > 227,> 250,> 250,> 91,1.1 ± 0.2,> 250,> 100,> 56,1.78 ± 0.07,> 100,> 50,2 ± 0.4,> 100,IC50 (A2780cis cells; [7]): 1.9 ± 0.2 µM
